# Patent US6537996B2, “Modulators of p38 MAP kinase” (Iconix Pharmaceuticals, Inc., priority 2000, dated 2003)
# How the values were obtained:
# yeast = experiment: growth rescue ARC experiments performed in yeast; format: cell-based; conditions: Saccharomyces cerevisiae, read-out: in vivo IC50
# Recombinant p38 = molecular target: T1, Recombinant p38 (Homo sapiens, UniProt Q16539); experiment: p38 assay (32P incorporation into GST-ATF-2); format: biochemical; conditions: recombinant p38, GST-ATF-2 substrate, 30 μM ATP; IC50 estimated from graph
# T1 construct: purchased Biomol SE-150
# Protocol: (A) Protocol: Recombinant p38 was pre-incubated for 30 minutes at room temperature in ADB (Assay Dilution Buffer: 20 mM MOPS, pH 7.2, 20 mM MgCl2, 5 mM EGTA, 1 mM DTT, 25 mM β-glycerolphosphate, 2 mM pNPP, 0.1 mM sodium orthovanadate) with recombinant GST-ATF-2 and compounds at various concentrations. The DMSO concentration was held constant at 0.1% (v/v) independent of the compound concentration. Kinase reactions were started with a mixture of ^32P-γ-ATP and ATP in ADB and were incubated for 30 minutes at 37° C. Final concentrations in kinase reactions was 0.625 ng/μl recombinant p38 (Biomol, catalog number SE-150), 62.5 ng/μl recombinant GST-ATF-2 (Upstate Biotechnology, catalog #12-367) and 30 μM ATP (Amersham, catalog #AA0068, used within two weeks of the reference date). Reactions were terminated by the addition of stopmix (final concentrations: 62.5 mM Tris pH 6.8, 10% (v/v) glycerol, 5% (v/v) B-mercaptoethanol, 20 mg/ml SDS, 1 mg/ml bromophenol blue). At this point samples were either processed directly or stored at 4° C. For analysis, samples were heated to 95° C. for 5 min and proteins were separated by SDS-PAGE using 8-16% precast gels (Novex). […] Screens were scanned using a PhosphoImager SI (Molecular Dynamics) and the amount of radioactive ^32P incorporated into GST-ATF-2 was quantified using ImageQuant (Molecular Dynamics) software. […]
# T1 sequence (Q16539 whole entry): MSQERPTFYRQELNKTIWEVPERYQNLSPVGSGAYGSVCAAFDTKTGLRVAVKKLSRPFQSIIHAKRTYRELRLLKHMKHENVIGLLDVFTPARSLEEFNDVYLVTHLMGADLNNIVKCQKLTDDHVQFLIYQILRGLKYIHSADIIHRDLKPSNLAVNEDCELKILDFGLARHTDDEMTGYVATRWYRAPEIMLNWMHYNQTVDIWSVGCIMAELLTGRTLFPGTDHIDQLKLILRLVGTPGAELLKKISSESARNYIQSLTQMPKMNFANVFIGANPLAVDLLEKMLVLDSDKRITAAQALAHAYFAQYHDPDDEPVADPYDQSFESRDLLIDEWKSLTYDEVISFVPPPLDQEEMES
compound,measurement,setting,value
"CC(C)/N=C(/Nc1cccc(C(F)(F)F)c1)c1ccncc1 [X, N-(3-trifluoromethylphenyl)-N′-isopropyl-4-amidinopyridine]",IC50,yeast,13.2 µM
same,IC50,Recombinant p38,0.75 µM
